Experimental findings from ChEMBL document CHEMBL1150688, “Guieranone A, a naphthyl butenone from the leaves of Guiera senegalensis with antifungal activity” (2003) are described below.

Activity calls are given as the source filed them. The calls are words filed in the database; no cut-off is given here.

The subject of this experiment is Cladosporium cucumerinum. Description: Antifungal activity against Cladosporium cucumerinum assessed as drug level causing inhibition of fungal growth after 2 days by TLC based bioautography. In kind it is functional.

As for `C/C=C/C(=O)c1c(OC)cc2cc(OC)cc(OC)c2c1OC` [GUIERANONE A], the INH is 1 µg.

For `COc1cc(OC)c2c(c1)cc(OC)c1c(=O)cc(C)oc12`, the result was inactive.

As for `COc1cc(OC)c2c3c(c(OC)cc2c1)C(=O)CC(C)O3` (stereo not drawn), the outcome was inactive.
